Experimental data published in publication PMC9697031, “Identification of Novel Diarylpyrimidines as Potent HIV-1 Non-Nucleoside Reverse Transcriptase Inhibitors by Exploring the Primer Grip Region” (Pharmaceuticals, 2022).
Read-outs that look alike come from different tables or passages of the source.

Assays:
[1] = in vitro; details: human
Description: (§1) Stock solutions (10 × final concentration) of test compounds were added in 25 μL volumes to two series of triplicate wells to allow simultaneous evaluation of their effects on mock- and HIV-infected cells at the beginning of each experiment.

[2] = test system: HIV-1 E138K mutant strain; experiment: Anti-HIV-1 mutant strain E138K in MT-4 cells, MTT method; type: cell-based; details: Human immunodeficiency virus 1, MT4, read-out: EC50 E138K
Description: (§2) Evaluation of the anti-HIV activity and cytotoxicity of the target compounds was performed by utilizing the MTT method in MT-4 cells described previously [37]. Stock solutions (10 × final concentration) of test compounds were added in 25 μL volumes to two series of triplicate wells to allow simultaneous evaluation of their effects on mock- and HIV-infected cells at the beginning of each experiment. Serial five-fold dilutions of test compounds were prepared directly in flat-bottomed 96-well microtiter trays by adding 100 μL medium to the 25 μL stock solution and transferring 25 μL of this solution to another well that contained 100 μL medium using a Biomek 3000 robot (Beckman Instruments, Fullerton, CA). Each sample includes untreated control HIV- and mock-infected cell samples. WT HIV-1 strain (IIIB), HIV-1 drug-resistant strains including L100I, K103N, Y181C, Y188L, E138K, K103N/Y181C, F227L/V106A or HIV-2 strain (ROD) stock (50 μL) at 100–300 CCID50 (50% cell culture infectious dose) or culture medium was added to either the infected or mock-infected wells of the microtiter tray. Mock-infected cells were used to evaluate the effect of test compounds on uninfected cells to evaluate their cytotoxicity. Exponentially growing MT-4 cells were centrifuged for 5 min at 1000 rpm, and the supernatant was discarded. […] After infection five days, the viability of mock- and HIV-infected cells was examined spectrophotometrically by the MTT assay.

[3] = test system: WT HIV-1 strain (IIIB); experiment: Anti-HIV-1 (IIIB, wild-type) activity in MT-4 cells, MTT method; type: cell-based; details: for SI (IIIB): selectivity index, CC50/EC50 (IIIB)
Description: as §1

[4] = test system: HIV-1 K103N mutant strain; experiment: microbe, parasite or virus in culture; type: cell-based; details: for EC50: Human immunodeficiency virus 1, MT4, read-out: EC50 K103N; for Resistance Folds K103N: RF, EC50 (K103N)/EC50 (WT)
Description: as §1

[5] = test system: HIV-1 Y181C mutant strain; experiment: Anti-HIV-1 mutant strain Y181C in MT-4 cells, MTT method; type: cell-based; details: Human immunodeficiency virus 1, MT4, read-out: EC50 Y181C
Description: as §2

[6] = test system: HIV-1 L100I mutant strain; experiment: Anti-HIV-1 mutant strain L100I in MT-4 cells, MTT method; type: cell-based; details: Human immunodeficiency virus 1, MT4, read-out: EC50 L100I
Description: as §2

[7] = test system: HIV-1 RES056 (K103N/Y181C) mutant strain; experiment: Anti-HIV-1 double mutant RES056 in MT-4 cells, MTT method; type: cell-based; details: Human immunodeficiency virus 1, MT4, read-out: EC50 RES056
Description: as §2

[8] = target: T1, HIV-1 WT RT (Human immunodeficiency virus type 1 group M subtype B, UniProt P04585); design: method as in PMID 35061384; details: incorporation of biotin-dUTP; used for comparison ref 5; cited from earlier work
T1 construct: The RT is a heterodimer consisting of two subunits, p66 (560 residues) and p51 (440 residues); purchased Roche

[9] = test system: HIV-1 F227L + V106A mutant strain; experiment: Anti-HIV-1 double mutant F227L + V106A in MT-4 cells, MTT method; type: cell-based; details: Human immunodeficiency virus 1, MT4, read-out: EC50 F227L + V106A
Description: as §2

[10] = test system: HIV-1 Y188L mutant strain; experiment: Anti-HIV-1 mutant strain Y188L in MT-4 cells, MTT method; type: cell-based; details: Human immunodeficiency virus 1, MT4, read-out: EC50 Y188L
Description: as §2

[11] = test system: WT HIV-1 strain (IIIB); design: method as in PMID 35061384; details: MT-4 cells, WT HIV-1 IIIB; used for comparison ref 5; cited from earlier work
[12] = target: T1, HIV-1 WT RT; experiment: HIV-1 RT inhibition assay (Roche kit, ELISA); type: biochemical
Description: An HIV-1 reverse transcriptase (RT) assay kit produced by Roche was used for the RT inhibition assay. All the reagents for performing the RT reaction came from the kit, and the ELSIA procedures for RT inhibition assay were conducted following the description in the kit protocol [38]. […] Then used, a washing buffer was used to remove the unbound dNTPs, and an anti-DIG-POD working solution was added. […] The unbound anti-DIG-PODs were removed, and the peroxidesubstrate (ABST) solution was added to the MTPs. A colored reaction proceeds during the cleavage of the substrate catalyzed by POD. […] The percentage inhibitory activity of RT inhibitors was calculated by the formula given below: % Inhibition = [O.D. value with RT but without inhibitors − O.D. value with RT and inhibitors]/[O.D. value with RT and inhibitors − O.D. value without RT and inhibitors].

[13] = test system: HIV-2 strain (ROD); experiment: Anti-HIV-2 (ROD) activity in MT-4 cells, MTT method; type: cell-based; details: Human immunodeficiency virus 2, MT4, read-out: EC50 ROD
Description: as §1

[14] = Human immunodeficiency virus 1, IIIB, MT4, read-out: EC50 IIIB, MT-4 cells, WT HIV-1 IIIB, MTT

Row | SMILES | CC50 at 5 days [1] [µM] | EC50 [2] [µM] | EC50 [3, 14] [µM] | EC50 ([3]; read-out: EC50 IIIB, MT-4 cells, WT HIV-1 IIIB, MTT) [µM] | SI (IIIB) [3] | EC50 [4] [µM] | EC50 [5] [µM] | EC50 [6] [µM] | EC50 [7] [µM] | IC50 [8] [µM] | EC50 [9] [µM] | EC50 [10] [µM] | EC50 [11] [µM] | Resistance Folds K103N [4] | melting point [°C] | IC50 [12] [µM] | EC50 [13] [µM]
1 | Cc1cc(C#N)cc(C)c1Oc1nc(Nc2ccc(C#N)cc2)nc(N)c1Br [ETR, etravirine, reference compound] | > 4.59 | 0.0063 ± 0.0012 | 0.003 | 0.0029 ± 0.0004 | >1578.9 | 0.003 ± 0.0003 | 0.0111 ± 0.0013 | 0.0059 ± 0.001 | 0.0295 ± 0.0048 | 0.011 | 0.0204 ± 0.0078 | 0.0181 ± 0.0032 |  |  |  |  | 
2 | Cc1cc(/C=C/C#N)cc(C)c1Nc1ccnc(Nc2ccc(C#N)cc2)n1 [RPV, rilpivirine] |  |  |  |  |  |  |  |  |  |  |  |  | 0.001 ± 0.00027 |  |  |  | 
3 | Cc1cc(COc2ccccc2CO)cc(C)c1Oc1ccnc(Nc2ccc(C#N)cc2)n1 [TF10, 4-((4-(4-((2-(hydroxymethyl)phenoxy)methyl)-2,6-dimethylphenoxy)pyrimidin-2-yl)amino)benzonitrile] | 4.8 ± 0.342 | 0.179 ± 0.0269 | 0.0322 ± 0.0033 |  | 149.1 | 0.158 ± 0.0186 | 0.766 ± 0.0225 | 0.635 ± 0.0282 | > 4.8 |  | 1.49 ± 0.0339 | > 4.8 |  | 4.94 | 179 to 182 | 0.055 | > 4.8
4 | Cc1cc(COc2cccnc2)cc(C)c1Oc1ccnc(Nc2ccc(C#N)cc2)n1 [TF11, 4-((4-(2,6-Dimethyl-4-((pyridin-3-yloxy)methyl)phenoxy)pyrimidin-2-yl)amino) benzonitrile] | 14.8 | ≥ 3.02 | 0.199 ± 0.013 |  | 74.5 | 0.444 ± 0.0686 | > 14.8 | 9.574 ± 0.0222 | > 14.8 |  | > 14.8 | > 14.8 |  | 2.23 | 237 to 240 | 0.483 ± 0.03 | > 14.8
5 | Cc1cc(COc2cccnc2C#N)cc(C)c1Oc1ccnc(Nc2ccc(C#N)cc2)n1 [TF12, 3-((4-((2-((4-cyanophenyl)amino)pyrimidin-4-yl)oxy)-3,5-dimethylbenzyl)oxy) picolinonitrile] | 2.46 ± 0.198 | 0.0462 ± 0.0071 | 0.0078 ± 0.0008 |  | 316.9 | 0.0347 ± 0.0088 | 0.385 ± 0.0755 | 0.246 ± 0.0546 | > 2.46 |  | 0.742 ± 0.145 | ≥ 1.56 |  | 4.49 | 245 to 248 | 0.038 ± 0.004 | > 2.46
6 | Cc1cc(COc2cncc(C#N)c2)cc(C)c1Oc1ccnc(Nc2ccc(C#N)cc2)n1 [TF13, 5-((4-((2-((4-cyanophenyl)amino)pyrimidin-4-yl)oxy)-3,5-dimethylbenzyl)oxy) nicotinonitrile] | 4.77 ± 1.56 | 0.0577 ± 0.0116 | 0.0194 ± 0.0034 |  | 246.4 | 0.028 ± 0.0025 | 0.265 ± 0.0246 | 0.125 ± 0.0059 | 1.18 ± 0.0682 |  | 1.65 ± 0.0199 | 1.05 ± 0.0668 |  | 1.47 | 195 to 198 | 0.059 ± 0.001 | > 4.77
7 | Cc1cc(COc2ccc(F)nc2)cc(C)c1Oc1ccnc(Nc2ccc(C#N)cc2)n1 [TF14, 4-((4-(4-(((6-fluoropyridin-3-yl)oxy)methyl)-2,6-dimethylphenoxy)pyrimidin-2-yl)amino)benzonitrile] | 24.4 | 0.0674 ± 0.0081 | 0.0236 ± 0.0038 |  | 1034.6 | 0.0367 ± 0.0037 | 0.286 ± 0.0521 | 0.185 ± 0.0116 | 1.19 ± 0.182 |  | 0.999 ± 0.126 | 0.774 ± 0.0392 |  | 1.54 | 185 to 188 | 0.041 ± 0.003 | > 24.4
8 | Cc1cc(COc2ccc(NC(=O)OC(C)(C)C)cc2)cc(C)c1Oc1ccnc(Nc2ccc(C#N)cc2)n1 [TF16, (4-((4-((2-((4-cyanophenyl)amino)pyrimidin-4-yl)oxy)-3,5-dimethylbenzyl)oxy)phenyl)carbamic acid tert-butyl ester] | 6.2 ± 0.22 | 0.245 ± 0.0304 | 0.0453 ± 0.0141 |  | 136.7 | 0.132 ± 0.0284 | 1.27 ± 0.154 | 0.715 ± 0.183 | > 6.2 |  | ≥ 1.62 | > 6.2 |  | 2.93 | 184 to 187 | 0.16 ± 0.001 | > 6.2
